According to PubChem BioAssay AID1963853 (Molecular Pharmacology Branch, DTP, NCI, 2024):

System: 266295-075-R-J1-PDC spheroid viability
Assay: Anticancer human tumor 266295-075-R-J1-PDC patient-derived head and neck squamous carcinoma cell line growth inhibition [POLQ]
Details: spheroids with HUVEC and MSC; for IC50: curve of first compound; for viability, T/C: stronger effect = lower value
Procedure, shortened: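 Patient-derived tumour cells were co-cultured with HUVEC and mesenchymal stem cells as multicellular spheroids at 37 °C. They were treated with POLQ inhibitors (novobiocin, ART-558, RP6685) alone or combined with other agents. Top concentrations were at or near clinical Cmax (otherwise 10 microM; SN-38 at 1 microM), decreasing in half-log steps.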

[1] = second compound 0.0316 µM, first compound 0.0316 µM
[2] = second compound 0.0316 µM, first compound 0.1 µM
[3] = second compound 0.1 µM, first compound 0.0316 µM
[4] = second compound 0.1 µM, first compound 0.1 µM
[5] = second compound 0.316 µM, first compound 0.0316 µM
[6] = second compound 0.316 µM, first compound 0.1 µM
[7] = second compound 1 µM, first compound 0.0316 µM
[8] = second compound 1 µM, first compound 0.1 µM
[9] = second compound 3.16 µM, first compound 0.0316 µM
[10] = second compound 3.16 µM, first compound 0.1 µM
[11] = second compound 10 µM, first compound 0.0316 µM
[12] = second compound 10 µM, first compound 0.1 µM
[13] = second compound 0.0316 µM, first compound 0.316 µM
[14] = second compound 0.0316 µM, first compound 1 µM
[15] = second compound 0.0316 µM, first compound 3.16 µM
[16] = second compound 0.0316 µM, first compound 10 µM
[17] = second compound 0.1 µM, first compound 0.316 µM
[18] = second compound 0.1 µM, first compound 1 µM
[19] = second compound 0.1 µM, first compound 3.16 µM
[20] = second compound 0.1 µM, first compound 10 µM
[21] = second compound 0.316 µM, first compound 0.316 µM
[22] = second compound 0.316 µM, first compound 1 µM
[23] = second compound 0.316 µM, first compound 3.16 µM
[24] = second compound 0.316 µM, first compound 10 µM
[25] = second compound 1 µM, first compound 0.316 µM
[26] = second compound 1 µM, first compound 1 µM
[27] = second compound 1 µM, first compound 3.16 µM
[28] = second compound 1 µM, first compound 10 µM
[29] = second compound 3.16 µM, first compound 0.316 µM
[30] = second compound 3.16 µM, first compound 1 µM
[31] = second compound 3.16 µM, first compound 3.16 µM
[32] = second compound 3.16 µM, first compound 10 µM
[33] = second compound 10 µM, first compound 0.316 µM
[34] = second compound 10 µM, first compound 1 µM
[35] = second compound 10 µM, first compound 3.16 µM
[36] = second compound 10 µM, first compound 10 µM
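Further: spheroids exposed to compounds for seven days before readout.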

Question: With CC[C@@]1(O)C(=O)OCc2c1cc1n(c2=O)Cc2cc3c(CN(C)C)c(O)ccc3nc2-1 + Cc1cccc(N(C)C(=O)C2C(O)CCN2c2nc(C)cc(C(F)(F)F)c2C#N)c1 as the molecule, how does the IC50 (second compound 0.0316 µM) read?
Answer: > 0.1 µM

Question: And the IC50 (second compound 0.1 µM)?
Answer: > 0.1 µM

Question: And the IC50 (second compound 0.316 µM)?
Answer: > 0.1 µM

Question: What about the IC50 (second compound 1 µM) of the same molecule?
Answer: > 0.1 µM

Question: What about the IC50 (second compound 3.16 µM) of the same molecule?
Answer: > 0.1 µM

Question: What about the IC50 (second compound 10 µM) of the same molecule?
Answer: > 0.1 µM

Question: What about the viability, T/C (second compound 0.0316 µM, first compound 0.000316 µM) of the same molecule?
Answer: 75%

Question: And the viability, T/C (second compound 0.0316 µM, first compound 0.001 µM)?
Answer: 85.8%

Question: And the viability, T/C (second compound 0.0316 µM, first compound 0.00316 µM)?
Answer: 107%

Question: And the viability, T/C (second compound 0.0316 µM, first compound 0.01 µM)?
Answer: 83.8%

Question: And the viability, T/C [1]?
Answer: 91.3%

Question: What about the viability, T/C [2] of the same molecule?
Answer: 76.3%

Question: What about the viability, T/C (second compound 0.1 µM, first compound 0.000316 µM) of the same molecule?
Answer: 94.2%

Question: And the viability, T/C (second compound 0.1 µM, first compound 0.001 µM)?
Answer: 90.1%

Question: What about the viability, T/C (second compound 0.1 µM, first compound 0.00316 µM) of the same molecule?
Answer: 77.6%

Question: And the viability, T/C (second compound 0.1 µM, first compound 0.01 µM)?
Answer: 81.2%

Question: What about the viability, T/C [3] of the same molecule?
Answer: 86.6%

Question: What about the viability, T/C [4] of the same molecule?
Answer: 77.8%

Question: And the viability, T/C (second compound 0.316 µM, first compound 0.000316 µM)?
Answer: 101%

Question: What about the viability, T/C (second compound 0.316 µM, first compound 0.001 µM) of the same molecule?
Answer: 88%

Question: And the viability, T/C (second compound 0.316 µM, first compound 0.00316 µM)?
Answer: 88%

Question: What about the viability, T/C (second compound 0.316 µM, first compound 0.01 µM) of the same molecule?
Answer: 86.8%

Question: What about the viability, T/C [5] of the same molecule?
Answer: 106%

Question: And the viability, T/C [6]?
Answer: 93.9%

Question: And the viability, T/C (second compound 1 µM, first compound 0.000316 µM)?
Answer: 79%

Question: What about the viability, T/C (second compound 1 µM, first compound 0.001 µM) of the same molecule?
Answer: 103%

Question: What about the viability, T/C (second compound 1 µM, first compound 0.00316 µM) of the same molecule?
Answer: 85.2%

Question: And the viability, T/C (second compound 1 µM, first compound 0.01 µM)?
Answer: 91.2%

Question: And the viability, T/C [7]?
Answer: 92.3%

Question: And the viability, T/C [8]?
Answer: 87.7%

Question: And the viability, T/C (second compound 3.16 µM, first compound 0.000316 µM)?
Answer: 78%

Question: And the viability, T/C (second compound 3.16 µM, first compound 0.001 µM)?
Answer: 94.2%

Question: What about the viability, T/C (second compound 3.16 µM, first compound 0.00316 µM) of the same molecule?
Answer: 92.4%

Question: And the viability, T/C (second compound 3.16 µM, first compound 0.01 µM)?
Answer: 87.2%

Question: What about the viability, T/C [9] of the same molecule?
Answer: 91.9%

Question: And the viability, T/C [10]?
Answer: 78.2%

Question: What about the viability, T/C (second compound 10 µM, first compound 0.000316 µM) of the same molecule?
Answer: 122%

Question: And the viability, T/C (second compound 10 µM, first compound 0.001 µM)?
Answer: 93.8%

Question: What about the viability, T/C (second compound 10 µM, first compound 0.00316 µM) of the same molecule?
Answer: 93.3%

Question: And the viability, T/C (second compound 10 µM, first compound 0.01 µM)?
Answer: 109%

Question: And the viability, T/C [11]?
Answer: 115%

Question: What about the viability, T/C [12] of the same molecule?
Answer: 88.4%

Question: Nc1ccn(C2OC(CO)C(O)C2(F)F)c(=O)n1 (stereo unspecified) + Cc1cccc(N(C)C(=O)C2C(O)CCN2c2nc(C)cc(C(F)(F)F)c2C#N)c1 was tested. Which IC50 (second compound 0.0316 µM) did it give?
Answer: > 10 µM

Question: What about the IC50 (second compound 0.1 µM) of the same molecule?
Answer: > 10 µM

Question: What about the IC50 (second compound 0.316 µM) of the same molecule?
Answer: > 10 µM

Question: What about the IC50 (second compound 1 µM) of the same molecule?
Answer: > 10 µM

Question: And the IC50 (second compound 3.16 µM)?
Answer: > 10 µM

Question: What about the IC50 (second compound 10 µM) of the same molecule?
Answer: > 10 µM

Question: What about the viability, T/C [1] of the same molecule?
Answer: 93.5%

Question: And the viability, T/C [2]?
Answer: 81.9%

Question: And the viability, T/C [13]?
Answer: 81.5%

Question: What about the viability, T/C [14] of the same molecule?
Answer: 68.3%

Question: And the viability, T/C [15]?
Answer: 79.5%

Question: And the viability, T/C [16]?
Answer: 69.4%

Question: And the viability, T/C [3]?
Answer: 85.8%

Question: And the viability, T/C [4]?
Answer: 93%

Question: And the viability, T/C [17]?
Answer: 79.6%

Question: And the viability, T/C [18]?
Answer: 76%

Question: What about the viability, T/C [19] of the same molecule?
Answer: 83.3%

Question: What about the viability, T/C [20] of the same molecule?
Answer: 73.7%

Question: What about the viability, T/C [5] of the same molecule?
Answer: 87.8%

Question: And the viability, T/C [6]?
Answer: 78.5%

Question: What about the viability, T/C [21] of the same molecule?
Answer: 77%

Question: What about the viability, T/C [22] of the same molecule?
Answer: 94.9%

Question: What about the viability, T/C [23] of the same molecule?
Answer: 76.6%

Question: What about the viability, T/C [24] of the same molecule?
Answer: 72.4%

Question: What about the viability, T/C [7] of the same molecule?
Answer: 99.8%

Question: What about the viability, T/C [8] of the same molecule?
Answer: 82.8%

Question: And the viability, T/C [25]?
Answer: 86%

Question: What about the viability, T/C [26] of the same molecule?
Answer: 84.7%

Question: What about the viability, T/C [27] of the same molecule?
Answer: 80.8%

Question: What about the viability, T/C [28] of the same molecule?
Answer: 80.2%

Question: What about the viability, T/C [9] of the same molecule?
Answer: 90.6%

Question: What about the viability, T/C [10] of the same molecule?
Answer: 96.9%

Question: What about the viability, T/C [29] of the same molecule?
Answer: 72.8%

Question: What about the viability, T/C [30] of the same molecule?
Answer: 78.1%

Question: What about the viability, T/C [31] of the same molecule?
Answer: 91%

Question: And the viability, T/C [32]?
Answer: 67.1%

Question: And the viability, T/C [11]?
Answer: 86.8%

Question: And the viability, T/C [12]?
Answer: 88.4%

Question: What about the viability, T/C [33] of the same molecule?
Answer: 72%

Question: And the viability, T/C [34]?
Answer: 75.1%

Question: What about the viability, T/C [35] of the same molecule?
Answer: 82.1%

Question: What about the viability, T/C [36] of the same molecule?
Answer: 68.2%

Question: Which IC50 (second compound 0.0316 µM) does the source give for O=c1[nH]cc(F)c(=O)[nH]1 + Cc1cccc(N(C)C(=O)C2C(O)CCN2c2nc(C)cc(C(F)(F)F)c2C#N)c1 here?
Answer: > 10 µM

Question: And the IC50 (second compound 0.1 µM)?
Answer: > 10 µM

Question: What about the IC50 (second compound 0.316 µM) of the same molecule?
Answer: > 10 µM

Question: And the IC50 (second compound 1 µM)?
Answer: > 10 µM

Question: And the IC50 (second compound 3.16 µM)?
Answer: > 10 µM

Question: And the IC50 (second compound 10 µM)?
Answer: > 10 µM

Question: What about the viability, T/C [1] of the same molecule?
Answer: 87.9%

Question: And the viability, T/C [2]?
Answer: 81%

Question: What about the viability, T/C [13] of the same molecule?
Answer: 101%

Question: What about the viability, T/C [14] of the same molecule?
Answer: 92.1%

Question: What about the viability, T/C [15] of the same molecule?
Answer: 77.8%

Question: And the viability, T/C [16]?
Answer: 85.1%

Question: And the viability, T/C [3]?
Answer: 120%

Question: And the viability, T/C [4]?
Answer: 87.6%

Question: And the viability, T/C [17]?
Answer: 84.3%

Question: And the viability, T/C [18]?
Answer: 99.7%

Question: And the viability, T/C [19]?
Answer: 104%

Question: And the viability, T/C [20]?
Answer: 83.1%

Question: What about the viability, T/C [5] of the same molecule?
Answer: 77.2%

Question: What about the viability, T/C [6] of the same molecule?
Answer: 99.8%

Question: What about the viability, T/C [21] of the same molecule?
Answer: 90.6%

Question: And the viability, T/C [22]?
Answer: 92.6%

Question: And the viability, T/C [23]?
Answer: 92.4%

Question: What about the viability, T/C [24] of the same molecule?
Answer: 63.5%

Question: And the viability, T/C [7]?
Answer: 98.5%

Question: What about the viability, T/C [8] of the same molecule?
Answer: 97.9%

Question: And the viability, T/C [25]?
Answer: 95.2%

Question: What about the viability, T/C [26] of the same molecule?
Answer: 97.7%

Question: And the viability, T/C [27]?
Answer: 99.5%

Question: What about the viability, T/C [28] of the same molecule?
Answer: 96.9%

Question: And the viability, T/C [9]?
Answer: 105%

Question: And the viability, T/C [10]?
Answer: 98.9%

Question: And the viability, T/C [29]?
Answer: 102%

Question: And the viability, T/C [30]?
Answer: 136%

Question: And the viability, T/C [31]?
Answer: 95.4%

Question: And the viability, T/C [32]?
Answer: 73.8%

Question: And the viability, T/C [11]?
Answer: 89.8%

Question: And the viability, T/C [12]?
Answer: 96.8%

Question: What about the viability, T/C [33] of the same molecule?
Answer: 110%

Question: And the viability, T/C [34]?
Answer: 94.3%

Question: What about the viability, T/C [35] of the same molecule?
Answer: 92.9%

Question: What about the viability, T/C [36] of the same molecule?
Answer: 71.6%
